Source: US10570184B2, “GLP-1/glucagon receptor co-agonists for medical use” (Novo Nordisk A/S, priority 2014, dated 2020)
Starred links: 1 amine or outer side, 2 acyl side, 3 side chain; linkers in the order of their positions; H or OH if unused. Non-standard residues stand in square brackets, D forms with d. Residues, ends and D or L forms follow the SMILES beside them. Groups on a side chain read outwards from the residue. *: point of attachment. C18 diacid = O=C(O)CCCCCCCCCCCCCCCCC(=O)*; γGlu = O=C(O)[C@H](CCC(=O)[*:2])N[*:1]; Ac4c = NC1(C(=O)O)CCC1; AEEA = NCCOCCOCC(=O)O; Aib = CC(C)(N)C(=O)O

Tests used:
human GLP-1 receptor = biological target: T1, human GLP-1 receptor (Homo sapiens, UniProt P43220); assay: Assay (I)(a) GLP-1 receptor activation, CRE luciferase reporter gene assay in BHK cells; format: cell-based; conditions: without presence of serum albumin; read-out: GLP-1R EC50 (pM) [Assay (I)(a)]
T1 construct: expressed in transfected cells; host or cells: membranes of BHK cells (parent BHKTS13), clone FCW467-12A
T1 sequence (P43220 24-463): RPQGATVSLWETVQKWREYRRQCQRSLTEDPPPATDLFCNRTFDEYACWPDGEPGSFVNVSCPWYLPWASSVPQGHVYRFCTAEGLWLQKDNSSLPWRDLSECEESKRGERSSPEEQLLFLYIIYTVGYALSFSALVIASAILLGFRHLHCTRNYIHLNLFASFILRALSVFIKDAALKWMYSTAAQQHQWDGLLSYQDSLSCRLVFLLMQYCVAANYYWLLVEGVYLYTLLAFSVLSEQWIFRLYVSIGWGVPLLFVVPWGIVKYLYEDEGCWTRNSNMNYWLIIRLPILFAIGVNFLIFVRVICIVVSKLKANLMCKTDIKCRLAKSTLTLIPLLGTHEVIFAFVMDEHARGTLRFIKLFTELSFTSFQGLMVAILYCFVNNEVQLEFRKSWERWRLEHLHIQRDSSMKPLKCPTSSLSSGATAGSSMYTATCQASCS
Procedure, shortened: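 Stable BHK clone expressing human GLP-1 receptor with CRE-driven firefly luciferase, 5×10EE3 cells/well in medium with 2% ovalbumin and 0.2% Pluronic F-68. Compounds at 1×10EE-13 to 1×10EE-6 M final, 3 h at 37° C.; luminescence read, EC50 (pM) from four-parameter fit.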

[1] = Assay (III) ThT fibrillation assay for physical stability; format: physicochemical; conditions: 250 μM in 10 mM HEPES buffer, 37° C., shaking 960 rpm
Procedure, shortened: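 Glucagon derivative at 250 μM in 10 mM HEPES pH 7.5 with 1 μM ThT was incubated at 37 °C under 960 rpm orbital shaking. Fluorescence (ex 444/em 485 nm) was read every 20 min and fitted for lag time (t0−2τ) and kapp (1/τ). Recovery was soluble peptide after centrifugation/filtration, by RP-HPLC, as percent of initial.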

Structure (SMILES)	EC50 (human GLP-1 receptor) [pM]	ThT Assay Lag time (h) [Assay (III), pH 7.5] [1] [h]
CC[C@H](C)[C@H](NC(=O)[C@H](CC(C)C)NC(=O)[C@H](Cc1c[nH]c2ccccc12)NC(=O)[C@H](CCCCNC(=O)COCCOCCNC(=O)COCCOCCNC(=O)CC[C@H](NC(=O)CC[C@H](NC(=O)CC[C@H](NC(=O)CCCCCCCCCCCCCCCCC(=O)O)C(=O)O)C(=O)O)C(=O)O)NC(=O)[C@@H](NC(=O)[C@H](Cc1ccccc1)NC(=O)[C@H](CCC(=O)O)NC(=O)[C@H](CCCNC(=N)N)NC(=O)[C@H](C)NC(=O)[C@H](CCCNC(=N)N)NC(=O)[C@H](CCCNC(=N)N)NC(=O)[C@H](C)NC(=O)[C@H](CC(=O)O)NC(=O)[C@H](CC(C)C)NC(=O)[C@H](Cc1ccc(O)cc1)NC(=O)[C@H](CCCCN)NC(=O)[C@H](CO)NC(=O)[C@H](Cc1ccc(O)cc1)NC(=O)[C@H](CC(=O)O)NC(=O)[C@H](CO)NC(=O)[C@@H](NC(=O)[C@H](Cc1ccccc1)NC(=O)[C@@H](NC(=O)CNC(=O)[C@H](CCC(N)=O)NC(=O)C(C)(C)NC(=O)[C@@H](N)Cc1c[nH]cn1)[C@@H](C)O)[C@@H](C)O)C(C)C)C(=O)N[C@@H](CO)C(=O)N[C@H](C(N)=O)[C@@H](C)O [Chem. 4, N^ε24-[2-[2-[2-[[2-[2-[2-[[(4S)-4-carboxy-4-[[(4S)-4-carboxy-4-[[(4S)-4-carboxy-4-(17-carboxyheptadecanoylamino)butanoyl]amino]butanoyl]amino]butanoyl]amino]ethoxy]ethoxy]acetyl]amino]ethoxy]ethoxy]acetyl]-[Aib2,Ala16,Arg20,Glu21,Lys24,Ile27,Ser28]-Glucagon amide] (H-H[Aib]QGTFTSDYSKYLDARRAREFVK([AEEA-AEEA-γGlu-γGlu-γGlu-C18 diacid])WLIST-NH2; N-terminus assumed)	3	
CC[C@H](C)[C@H](NC(=O)[C@H](CC(C)C)NC(=O)[C@H](Cc1c[nH]c2ccccc12)NC(=O)[C@H](CCC(N)=O)NC(=O)[C@@H](NC(=O)[C@H](Cc1ccccc1)NC(=O)[C@H](CC(=O)O)NC(=O)[C@H](CCC(N)=O)NC(=O)[C@H](C)NC(=O)[C@H](CCCNC(=N)N)NC(=O)[C@H](CCCNC(=N)N)NC(=O)[C@H](C)NC(=O)[C@H](CC(=O)O)NC(=O)[C@H](CC(C)C)NC(=O)[C@H](Cc1ccc(O)cc1)NC(=O)[C@H](CCCCN)NC(=O)[C@H](CO)NC(=O)[C@H](CC(C)C)NC(=O)[C@H](CC(=O)O)NC(=O)[C@H](CO)NC(=O)[C@@H](NC(=O)[C@H](Cc1ccccc1)NC(=O)[C@@H](NC(=O)CNC(=O)[C@H](CCC(N)=O)NC(=O)C(C)(C)NC(=O)[C@@H](N)Cc1c[nH]cn1)[C@@H](C)O)[C@@H](C)O)C(C)C)C(=O)N[C@@H](CCCCNC(=O)COCCOCCNC(=O)COCCOCCNC(=O)CC[C@H](NC(=O)CC[C@H](NC(=O)CC[C@H](NC(=O)CCCCCCCCCCCCCCCCC(=O)O)C(=O)O)C(=O)O)C(=O)O)C(=O)N[C@H](C(N)=O)[C@@H](C)O [Chem. 7, N^ε28-[2-[2-[2-[[2-[2-[2-[[(4S)-4-carboxy-4-[[(4S)-4-carboxy-4-[[(4S)-4-carboxy-4-(17-carboxyheptadecanoylamino)butanoyl]amino]butanoyl]amino]butanoyl]amino]ethoxy]ethoxy]acetyl]amino]ethoxy]ethoxy]acetyl]-[Aib2,Leu10,Ala16,Ile27,Lys28]-Glucagon amide] (H-H[Aib]QGTFTSDLSKYLDARRAQDFVQWLIK([AEEA-AEEA-γGlu-γGlu-γGlu-C18 diacid])T-NH2; N-terminus assumed)	2	
CC[C@H](C)[C@H](NC(=O)[C@H](CC(C)C)NC(=O)[C@H](Cc1c[nH]c2ccccc12)NC(=O)[C@H](CCC(N)=O)NC(=O)[C@@H](NC(=O)[C@H](Cc1ccccc1)NC(=O)[C@H](CCC(=O)O)NC(=O)[C@H](CCCNC(=N)N)NC(=O)[C@H](C)NC(=O)[C@H](CCCNC(=N)N)NC(=O)[C@H](CCCNC(=N)N)NC(=O)[C@H](CO)NC(=O)[C@H](CCC(=O)O)NC(=O)[C@H](CC(C)C)NC(=O)[C@H](Cc1ccc(O)cc1)NC(=O)[C@H](CCCCN)NC(=O)[C@H](CO)NC(=O)[C@H](CC(C)C)NC(=O)[C@H](CC(=O)O)NC(=O)[C@H](CO)NC(=O)[C@@H](NC(=O)[C@H](Cc1ccccc1)NC(=O)[C@@H](NC(=O)CNC(=O)[C@H](CCC(N)=O)NC(=O)C1(NC(=O)[C@@H](N)Cc2c[nH]cn2)CCC1)[C@@H](C)O)[C@@H](C)O)C(C)C)C(=O)N[C@@H](CCCCNC(=O)CNC(=O)[C@H](CO)NC(=O)[C@H](CCC(=O)O)NC(=O)CNC(=O)[C@H](CO)NC(=O)CC[C@H](NC(=O)CC[C@H](NC(=O)CCCCCCCCCCCCCCCCC(=O)O)C(=O)O)C(=O)O)C(=O)N[C@H](C(N)=O)[C@@H](C)O [Chem. 16, N^ε28-[2-[[(2S)-2-[[(2S)-4-carboxy-2-[[2-[[(2S)-2-[[(4S)-4-carboxy-4-[[(4S)-4-carboxy-4-(17-carboxyheptadecanoylamino)butanoyl]amino]butanoyl]amino]-3-hydroxypropanoyl]amino]acetyl]amino]butanoyl]amino]-3-hydroxypropanoyl]amino]acetyl]-[Acb2,Leu10,Glu15,Arg20,Glu21,Ile27,Lys28]-Glucagon amide] (HELM PEPTIDE1{H.[O=C(C1(N[*:1])CCC1)[*:2]].Q.G.T.F.T.S.D.L.S.K.Y.L.E.S.R.R.A.R.E.F.V.Q.W.L.I.K.T.[am]}|PEPTIDE2{[O=C(O)CCCCCCCCCCCCCCCCC(=O)[*:2]].[gGlu].[gGlu].S.G.E.S.G}$PEPTIDE1,PEPTIDE2,28:R3-8:R2$$$V2.0)	5	16.0
CC[C@H](C)[C@H](NC(=O)[C@H](CC(C)C)NC(=O)[C@H](Cc1c[nH]c2ccccc12)NC(=O)[C@H](CCC(N)=O)NC(=O)[C@@H](NC(=O)[C@H](Cc1ccccc1)NC(=O)[C@H](CCC(=O)O)NC(=O)[C@H](CCCNC(=N)N)NC(=O)[C@H](C)NC(=O)[C@H](CCCNC(=N)N)NC(=O)[C@H](CCCNC(=N)N)NC(=O)[C@H](CO)NC(=O)[C@H](CCC(=O)O)NC(=O)[C@H](CC(C)C)NC(=O)[C@H](Cc1ccc(O)cc1)NC(=O)[C@H](CCCNC(=N)N)NC(=O)[C@H](CO)NC(=O)[C@H](CC(C)C)NC(=O)[C@H](CC(=O)O)NC(=O)[C@H](CO)NC(=O)[C@@H](NC(=O)[C@H](Cc1ccccc1)NC(=O)[C@@H](NC(=O)CNC(=O)[C@H](CCC(N)=O)NC(=O)C1(NC(=O)[C@@H](N)Cc2c[nH]cn2)CCC1)[C@@H](C)O)[C@@H](C)O)C(C)C)C(=O)N[C@@H](CCCCNC(=O)CC[C@H](NC(=O)CC[C@H](NC(=O)COCCOCCNC(=O)COCCOCCNC(=O)CC[C@H](NC(=O)CC[C@H](NC(=O)CCCCCCCCCCCCCCCCC(=O)O)C(=O)O)C(=O)O)C(=O)O)C(=O)O)C(=O)N[C@H](C(N)=O)[C@@H](C)O [Chem. 17, N^ε28-[(4S)-4-carboxy-4-[[(4S)-4-carboxy-4-[[2-[2 [2-[[2-[2-[2-[[(4S)-4-carboxy-4-[[(4S)-4-carboxy-4-(17-carboxyheptadecanoylamino)butanoyl]amino]butanoyl]amino]ethoxy]ethoxy]acetyl]amino]ethoxy]ethoxy]acetyl]amino]butanoyl]amino]butanoyl]-[Acb2,Leu10,Arg12,Glu15,Arg20,Glu21,Ile27,Lys28]-Glucagon amide] (H-H[Ac4c]QGTFTSDLSRYLESRRAREFVQWLIK([γGlu-γGlu-AEEA-AEEA-γGlu-γGlu-C18 diacid])T-NH2)	4	12.3
CC[C@H](C)[C@H](NC(=O)[C@H](CC(C)C)NC(=O)[C@H](Cc1c[nH]c2ccccc12)NC(=O)[C@H](CCC(N)=O)NC(=O)[C@@H](NC(=O)[C@H](Cc1ccccc1)NC(=O)[C@H](CCC(=O)O)NC(=O)[C@H](CCCNC(=N)N)NC(=O)[C@H](C)NC(=O)[C@H](CCCNC(=N)N)NC(=O)[C@H](CCCNC(=N)N)NC(=O)[C@H](CO)NC(=O)[C@H](CCC(=O)O)NC(=O)[C@H](CC(C)C)NC(=O)[C@H](Cc1ccc(O)cc1)NC(=O)[C@H](CCCCN)NC(=O)[C@H](CO)NC(=O)[C@H](CC(C)C)NC(=O)[C@H](CC(=O)O)NC(=O)[C@H](CO)NC(=O)[C@@H](NC(=O)[C@H](Cc1ccccc1)NC(=O)[C@@H](NC(=O)CNC(=O)[C@H](CCC(N)=O)NC(=O)C1(NC(=O)[C@@H](N)Cc2c[nH]cn2)CCC1)[C@@H](C)O)[C@@H](C)O)C(C)C)C(=O)N[C@@H](CCCCNC(=O)COCCOCCNC(=O)COCCOCCNC(=O)CC[C@H](NC(=O)CC[C@H](NC(=O)CCCCCCCCCCCCCCCCC(=O)O)C(=O)O)C(=O)O)C(=O)N[C@H](C(N)=O)[C@@H](C)O [Chem. 18, N^ε28-[2-[2-[2-[[2-[2-[2-[[(4S)-4-carboxy-4-[[(4S)-4-carboxy-4-(17-carboxyheptadecanoylamino)butanoyl]amino]butanoyl]amino]ethoxy]ethoxy]acetyl]amino]ethoxy]ethoxy]acetyl]-[Acb2,Leu10,Glu15,Arg20,Glu21,Ile27,Lys28]-Glucagon amide] (H-H[Ac4c]QGTFTSDLSKYLESRRAREFVQWLIK([AEEA-AEEA-γGlu-γGlu-C18 diacid])T-NH2)	4	5.0
